Measured values from article PMC7996328, “Design, Synthesis, and Biological Evaluation of a Series of 5- and 7-Hydroxycoumarin Derivatives as 5-HT1A Serotonin Receptor Antagonists” (Pharmaceuticals, 2021).
“Also recorded” adds a separate entry of the source. Where two headings read alike, the source gives them in different places.

What was measured:
5-HT1A receptor = target: T1, 5-HT1A receptor (Rattus norvegicus, UniProt P19327); assay: Antagonist activity for the 5-HT1A receptor, [35S]GTPγS assay in hippocampal homogenates; type: biochemical; conditions: 8-OH-DPAT 1.4 × 10^−7 M, mean ± SEM; for EC50 (nM ± SEM) / EC50: antagonistic activity
T1 construct: Hippocampal homogenates (15 μg/mL) were added to each tube as the 5-HT1A receptor source; from tissue; host or cells: rat hippocampus (male Sprague-Dawley), membrane homogenate
T1 sequence (P19327 1-422): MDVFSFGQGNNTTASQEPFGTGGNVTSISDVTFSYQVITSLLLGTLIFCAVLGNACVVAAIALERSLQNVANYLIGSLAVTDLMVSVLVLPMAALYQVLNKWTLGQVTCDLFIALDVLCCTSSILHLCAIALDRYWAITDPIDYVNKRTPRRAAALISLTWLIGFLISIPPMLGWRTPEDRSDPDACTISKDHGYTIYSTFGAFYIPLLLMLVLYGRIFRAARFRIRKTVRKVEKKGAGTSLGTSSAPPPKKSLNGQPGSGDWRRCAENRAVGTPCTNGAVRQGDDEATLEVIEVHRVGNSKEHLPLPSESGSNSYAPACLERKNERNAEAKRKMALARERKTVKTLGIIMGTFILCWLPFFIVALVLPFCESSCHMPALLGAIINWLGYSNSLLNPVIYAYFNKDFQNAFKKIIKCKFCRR
Method: Male Sprague–Dawley rats were decapitated, their brains removed, and placed on ice. Hippocampi were dissected and homogenized with a glass homogenizer in 30 vol. ice-cold TED buffer (50 mM Tris-HCl, 1 mM EDTA, 1mM dithiotheritol, pH 7.4). Next, the homogenate was centrifuged at 21,000× g for 30 min at 4 °C. […] The suspension was centrifuged again at 21,000× g for 30 min at 4 °C. The pellet was resuspended in 30 vol. TED buffer (pH 7.4) and the centrifugation step was repeated. The final pellet was suspended in 10 vol 50 mM Tris-HCl (pH 7.4) and stored at −80 °C until use.
Serial dilutions of the compounds tested (10^−10–10^−5 M) were incubated in triplicate with 0.8 nM [^35S]GTPγS in assay buffer (50 mM Tris-HCl, pH = 7.4, 1 mM EGTA, 3 mM MgCl2, 100 mM NaCl, 30 µM GDP) and 8-OH-DPAT (final concentration 1.4 × 10^−7 M) in the final assay volume of 250 µL. Hippocampal homogenates (15 μg/mL) were added to each tube as the 5-HT1A receptor source. […] Non-specific binding was determined with 10 µM of unlabeled GTPγS. […] Next, 96-well Unifilter® Plates (Perkin Elmer, Waltham, MA, USA) were presoaked for 1 h with 50 mM Tris-HCl (pH = 7.4) before harvesting. The reaction was terminated by vacuum filtration onto filter plates with the FilterMate Harvester® (Perkin Elmer, Waltham, MA, USA). The samples were then rapidly washed with 2 mL of 50 mM Tris-HCl (pH = 7.4) buffer. Filter plates were dried for 2 h at 50 °C. After drying, 45 µL of EcoScint-20 scintillant (Perkin Elmer) was added to every well. Radioactivity was counted in a Trilux MicroBeta^2 counter (Perkin Elmer). Data were analyzed with GraphPad Prism 5.0 software (GraphPad Software, San Diego, CA, USA, www.graphpad.com). Curves were fitted with a one-site non-linear regression model. Efficacy (Emax) and half maximal inhibitory concentration (IC50) were calculated from the Cheng–Prusoff equation and expressed as means ± SEM.

5-HT2A receptor = target: T2, 5-HT2A receptor (Rattus norvegicus, UniProt P14842); assay: 5-HT2A competition binding assay, [3H]ketanserin, frontal cortex homogenates; conditions: [3H]ketanserin 1 nM
T2 construct: from tissue; host or cells: rat frontal cortex (male SD), membrane homogenate
T2 sequence (P14842 whole entry): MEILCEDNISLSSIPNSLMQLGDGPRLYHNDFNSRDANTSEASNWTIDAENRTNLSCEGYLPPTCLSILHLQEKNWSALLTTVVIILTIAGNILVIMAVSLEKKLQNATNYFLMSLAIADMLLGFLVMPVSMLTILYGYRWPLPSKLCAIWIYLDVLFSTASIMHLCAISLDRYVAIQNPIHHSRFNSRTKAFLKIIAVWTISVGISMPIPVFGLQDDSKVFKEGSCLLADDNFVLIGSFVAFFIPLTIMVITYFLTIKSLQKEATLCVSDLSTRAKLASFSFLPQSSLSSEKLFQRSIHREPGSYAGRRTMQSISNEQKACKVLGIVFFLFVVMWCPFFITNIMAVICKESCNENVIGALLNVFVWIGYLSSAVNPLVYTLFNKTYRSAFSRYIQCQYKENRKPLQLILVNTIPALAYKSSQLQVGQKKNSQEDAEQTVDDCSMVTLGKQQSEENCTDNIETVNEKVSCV
Method: Male SD rats were decapitated and their brains removed and placed on ice. Frontal cortices were homogenized with a glass homogenizer in 30 vol ice-cold homogenization buffer (50 mM Tris-HCl. 1 mM EDTA. 5 mM MgCl2. pH 7.4). Next, the homogenate was centrifuged at 20,000× g for 15 min at 4 °C. […] The suspension was again centrifuged at 20,000× g for 15 min at 4 °C. The pellet was resuspended in 10 vol. 50 mM Tris-HCl (pH 7.4) and the centrifugation step was repeated. The final pellet was suspended in 10 vol 50 mM Tris-HCl (pH 7.4) and stored at −80 °C.
Non-specific binding was determined in the presence of 10 μM mianserin. After incubation, the reaction mixture was deposited onto UniFilter-96 GF/B plates with the aid of a FilterMate-96 Harvester. Filter plates were presoaked beforehand with 0.4% PEI for 1 h. Next, each filter well was washed with 1.75 mL of 50 mM Tris-HCl (pH 7.4) and left to dry on a heating block set to 50 °C for 2 h. Then 45 µL of Microscint-20 scintillation fluid was added to each filter well and left to equilibrate overnight. Filter-bound radioactivity was counted in a MicroBeta^2 Microplate Counter. Binding curves were fitted with one site non-linear regression. Affinity was presented as the inhibitory constant (pKi ± SEM and Ki ± SEM) from two or three separate experiments.

[1] = read-out: Ki (nM ± SEM) (converted)
[2] = read-out: pKi (M ± SEM) (converted)

pIC50 ± SEM (5-HT1A receptor) | Compound | EC50 (nM ± SEM) (5-HT1A receptor) | Ki (5-HT2A receptor; [1]) | melting point | Ki (5-HT2A receptor; [2]) | IC50 (5-HT1A receptor) | EC50 (5-HT1A receptor)
no activity | Cc1cc(OCCN2CCN(c3ccccc3Br)CC2)c2c(C)cc(=O)oc2c1 [Compound 2f, 5-(2-(4-(2-bromophenyl)piperazin-1-yl)ethoxy)-4,7-dimethyl-2H-chromen-2-one] | did not show any activity; also recorded: no activity | 9600 ± 2840 nM | 129 to 130 °C |  |  | 
no activity | Cc1ccc(C)c(N2CCN(CCOc3cc(C)cc4oc(=O)cc(C)c34)CC2)c1 [Compound 2d, 5-(2-(4-(2,5-dimethylphenyl)piperazin-1-yl)ethoxy)-4,7-dimethyl-2H-chromen-2-one] | did not show any activity; also recorded: no activity | 7320 ± 2080 nM | 119 to 120 °C | 7410 nM |  | 
 | COc1cccc(N2CCN(CCCCCOc3ccc4c(C)cc(=O)oc4c3C(C)=O)CC2)c1 [Compound 5c, 8-acetyl-7-(5-[4-(3-methoxyphenyl)piperazin-1-yl]penthoxy)-4-methylchromen-2-one] |  | 144 ± 38 nM |  |  | 25100 nM | 22900 nM
 | COc1ccccc1N1CCN(CCCCCOc2cc(C)cc3oc(=O)cc(C)c23)CC1 [Compound 1a, 5-(5-(4-(2-methoxyphenyl)piperazin-1-yl)pentyloxy)-4,7-dimethyl-2H-chromen-2-one] |  | 776 ± 187 nM | 66 to 68 °C | 644 nM | 31.6 nM | 29.4 ± 7.3 nM
 | CC(=O)c1c(OCCCCCN2CCN(c3cccc(Br)c3)CC2)ccc2c(C)cc(=O)oc12 [Compound 5g, 8-acetyl-7-(5-[4-(3-bromohenyl)piperazin-1-yl]penthoxy)-4-methylchromen-2-one] |  | 81 ± 19 nM | 119 to 121 °C |  | 25100 nM | 21500 nM
 | Cc1cc(OCCCCCN2CCN(c3ccccc3Br)CC2)c2c(C)cc(=O)oc2c1 [Compound 1f, 5-(5-(4-(2-bromophenyl)piperazin-1-yl)pentyloxy)-4,7-dimethyl-2H-chromen-2-one] |  | 1550 ± 323 nM | 143 to 144 °C |  | 20000 nM | 20900 nM
 | CC(=O)c1c(C)cc2oc(=O)cc(C)c2c1OCCN1CCN(c2ccccc2C#N)CC1 [Compound 4j, 6-acetyl-5-(2-(4-(2-cyanophenyl)piperazin-1-yl)ethoxy)-4,7-dimethyl-2H-chromen-2-one] |  | 2430 ± 374 nM | 153 to 155 °C |  | 501 nM | 538 ± 105 nM
 | COc1cccc(N2CCN(CCOc3c(C(C)=O)c(C)cc4oc(=O)cc(C)c34)CC2)c1 [Compound 4c, 6-acetyl-5-(2-(4-(3-methoxyphenyl)piperazin-1-yl)ethoxy)-4,7-dimethyl-2H-chromen-2-one] |  | 513 ± 137 nM | 75 to 76 °C |  | 5010 nM | 5010 ± 117 nM
 | CC(=O)c1c(C)cc2oc(=O)cc(C)c2c1OCCCCCN1CCN(c2cc(C)cc(C)c2)CC1 [Compound 3h, 6-acetyl-5-(5-(4-(3,5-dimethylphenyl)piperazin-1-yl)pentyloxy)-4,7-dimethyl-2H-chromen-2-one] |  | 1800 ± 521 nM | 100 to 102 °C |  | 1260 nM | 1240 ± 112 nM
 | CC(=O)c1c(OCCN2CCN(c3ccccc3Br)CC2)ccc2c(C)cc(=O)oc12 [Compound 6f, 8-acetyl-7-(2-[4-(2-bromophenyl)piperazin-1-yl]ethoxy)-4-methylchromen-2-one] |  | 1500 ± 268 nM | 145 to 147 °C |  | 50100 nM | 46800 nM
 | CC(=O)c1c(OCCN2CCN(c3ccccc3F)CC2)ccc2c(C)cc(=O)oc12 [Compound 6b, 8-acetyl-7-(2-[4-(2-fluorophenyl)piperazin-1-yl]ethoxy)-4-methylchromen-2-one] |  | 1510 ± 344 nM | 137 to 139 °C |  | 50100 nM | 45300 nM
 | CC(=O)c1c(C)cc2oc(=O)cc(C)c2c1OCCCCCN1CCN(c2cccc(F)c2)CC1 [Compound 3e, 6-acetyl-5-(5-(4-(3-fluorophenyl)piperazin-1-yl)pentyloxy)-4,7-dimethyl-2H-chromen-2-one] |  | 1420 ± 426 nM | 150 to 152 °C |  | 708 nM | 702 ± 112 nM
 | COc1ccccc1N1CCN(CCOc2c(C(C)=O)c(C)cc3oc(=O)cc(C)c23)CC1 [Compound 4a, 6-acetyl-5-(2-(4-(2-methoxyphenyl)piperazin-1-yl)ethoxy)-4,7-dimethyl-2H-chromen-2-one] |  | 5210 ± 1250 nM | 132 to 134 °C |  | 100 nM | 91.6 ± 13.3 nM
 | CC(=O)c1c(C)cc2oc(=O)cc(C)c2c1OCCN1CCN(c2cccc(F)c2)CC1 [Compound 4e, 6-acetyl-5-(2-(4-(3-fluorophenyl)piperazin-1-yl)ethoxy)-4,7-dimethyl-2H-chromen-2-one] |  | 3860 ± 810 nM | 135 to 136 °C |  | 501 nM | 527 ± 191 nM
 | CC(=O)c1c(C)cc2oc(=O)cc(C)c2c1OCCN1CCN(c2cc(C)cc(C)c2)CC1 [Compound 4h, 6-acetyl-5-(2-(4-(3,5-dimethylphenyl)piperazin-1-yl)ethoxy)-4,7-dimethyl-2H-chromen-2-one] |  | 1920 ± 382 nM |  |  | 39800 nM | 26800 nM
 | Cc1cc(OCCBr)c2c(C)cc(=O)oc2c1 [Compound 2, 5-(2-bromoethoxy)-4,7-dimethyl-2H-chromen-2-one] |  |  | 121 to 123 °C |  |  | 
 | CC(=O)c1c(C)cc2oc(=O)cc(C)c2c1OCCN1CCN(c2cc(C)ccc2C)CC1 [Compound 4d, 6-acetyl-5-(2-(4-(2,5-dimethylphenyl)piperazin-1-yl)ethoxy)-4,7-dimethyl-2H-chromen-2-one] |  | 11900 nM |  |  | 79400 nM | 74700 nM
 | CC(=O)c1c(C)cc2oc(=O)cc(C)c2c1OCCCCCBr [Compound 3, 6-acetyl-5-(5-bromopentyloxy)-4,7-dimethyl-2H-chromen-2-one] |  |  | 78 to 80 °C |  |  | 
 | CC(=O)c1c(C)cc2oc(=O)cc(C)c2c1OCCBr [Compound 4, 6-acetyl-5-(2-bromoethoxy)-4,7-dimethyl-2H-chromen-2-one] |  |  | 168 to 169 °C |  |  | 
 | COc1ccccc1N1CCN(CCCCCOc2c(C(C)=O)c(C)cc3oc(=O)cc(C)c23)CC1 [Compound 3a, 6-acetyl-5-(5-(4-(2-methoxyphenyl)piperazin-1-yl)pentyloxy)-4,7-dimethyl-2H-chromen-2-one] |  | 641 ± 128 nM |  |  | 39.8 nM | 39.4 ± 3.63 nM
 | CC(=O)c1c(OCCBr)ccc2c(C)cc(=O)oc12 [Compound 6, 8-acetyl-7-(2-bromoethoxy)-4-methylchromen-2-one] |  |  | 140 to 142 °C |  |  | 
 | Cc1cc(OCCCCCBr)c2c(C)cc(=O)oc2c1 [Compound 1, 5-(5-bromopentyloxy)-4,7-dimethyl-2H-chromen-2-one] |  |  | 99 to 101 °C |  |  | 
